Results: patent US12013390B2, “EBIV nucleic acid composition and application thereof” (Wuhan Institute of Virology, Chinese Academy of Sciences, priority 2022, dated 2024)

Each compound was assayed on recombinant EBIV carrying green fluorescent protein (assay: Antiviral drug screening with green fluorescent recombinant EBIV in BHK-21 cells, fluorescence per well by high content screening). Conditions: Ebinur lake virus, BHK-21, 36 h, read-out: EC50 (half-maximal effect concentration).
Format: cell-based, Ebinur Lake virus (EBIV)
Experimental: Further, the recombinant EBIV disclosed in the examples of the present application can also be used for the screening of antiviral drugs, for example for the screening of antiviral compounds. The specific steps were as follows.
(1) A 96-well plate for BHK-21 cells was prepared. The cells were planked at 10^4 cells/well. The plate was cultured in a cell incubator with a temperature of 37° C. and a CO2 concentration of 5%. The drug screening test was conducted when the cells grew to 40-50%. The drug to be tested was dissolved in dimethyl sulfoxide. Then the drug was diluted to 100 μM with DMEM medium containing 2% FBS. After that, the drug was subjected to serial 2-fold dilution to obtain the dilution gradient with the concentration of 100 μM, 50 μM, 25 μM, 12.5 μM, 6.25 μM, 3.125 μM, and 1.5625 μM, respectively (the concentration of DMSO in the diluted drug shall be <0.1%).
(2) The original culture medium was removed from the 96-well plate. The virus was inoculated into the 96-well plate at an MOI of 0.01 and a volume of 100 μL/well. At the same time, the diluted drugs to be tested were respectively added into the same 96-well plate at 100 μL/well and mixed well with the virus solution. The plate was incubated in a cell incubator with a temperature of 37° C. and a CO2 concentration of 5% for 36 hours before detection.
(3) The 96-well plate was photographed and data was analyzed using a high content screening (HCS) system to determine the amount of fluorescence per well and calculate the Z-factor for each compound:
[formula] where the four parameters σs, σc, μs, and μc represent the standard deviation and mean of the sample to be tested (s) and the negative (c) control, respectively. The stability and sensitivity of the screening system were then assessed using the Z′-factor:
[formula] where the four parameters σp, σn, μp, and μn represent the standard deviation and mean of the positive sample (p) and the negative (n) control, respectively.
(4) Cell viability per well (and the percentage of cells remaining per well) was observed under a microscope and the half-maximal effect concentration (EC50) of the drug was calculated using GraphPad Prism 9 software and an EC50 graph was plotted.
Compound NC(=O)c1ncn([C@@H]2O[C@H](CO)[C@@H](O)[C@H]2O)n1 [ribavirin, reference compound] has an EC50 of 21.9 µM.

Same assay, conditions: even at 50 μM; BHK-21 cells, MOI 0.01, 36 hours
In the case of NC(=O)c1nc(F)c[nH]c1=O [favipiravir, reference compound], the “inhibitory effect on the virus” value is reported as “no inhibitory effect”.

Same assay, conditions: high-content screening; compared with Z'-factor 0.46 of the system (25 μM ribavirin positive control)
CC(C)=CCC(OC(=O)C=C(C)C)C1=CC(=O)c2c(O)ccc(O)c2C1=O (stereo not drawn) [Beta, beta-dimethyl acryl shikonin] showed a Z-factor of 0.53.
For C[C@@]12C(=O)OC(=O)[C@]1(C)[C@H]1CC[C@@H]2O1 [Cantharidin], the Z-factor was 0.50.
For C[C@H](CCC(=O)O)[C@H]1CC[C@H]2[C@@H]3[C@H](O)C[C@@H]4C[C@H](O)CC[C@]4(C)[C@H]3CC[C@]12C [Chenodeoxycholic acid, reference compound], the Z-factor was 0.59.
Compound COc1ccc(-c2cc(=O)c3c(O)cc(O[C@@H]4O[C@H](CO[C@@H]5O[C@@H](C)[C@H](O)[C@@H](O)[C@H]5O)[C@@H](O)[C@H](O)[C@H]4O)cc3o2)cc1O [Diosmin, reference compound] has a Z-factor of 0.58.
Work on Oc1cc(O)c2c(c1)O[C@H](c1cc(O)c(O)c(O)c1)[C@H](O)C2 [Epigallocatechol] yielded a Z-factor of 0.51.
CC(C)=CCc1c(O)ccc(C(=O)/C=C/c2ccc(O)cc2)c1O [Isobavachalcone] showed a Z-factor of 0.58.
Work on CC(C)=CCc1cc2c(cc1O)oc(=O)c1c3ccc(O)cc3oc21 [Psoralidin] yielded a Z-factor of 0.46.
Work on C=C[C@H]1[C@H](O[C@@H]2O[C@H](CO)[C@@H](O)[C@H](O)[C@H]2O)OC=C(C(=O)OC)[C@H]1CC(=O)O [Secoxyloganin] yielded a Z-factor of 0.56.
Clinodiside Aogenin A was tested, and the Z-factor was 0.54.
